Laboratory results taken from US20110152086A1, “Herbicidal Compositions Comprising Flufenacet” (BAYER CROPSCIENCE AG, priority 2009, published 2011).
Read-outs that look alike come from different tables or passages of the source.

How the values were obtained:
VIOAR [1] = test: Greenhouse trial, PE soil application vs incorporation into the soil (Table 1a); type: in vivo, Viola arvensis; conditions: (A) 90, (B) 1200 g of AS/ha
Experimental: (§1) In the standard design of the test, seeds of various broad-leaved weed and weed grass biotypes (origins) were sown in a 8-13 cm diameter pot filled with natural soil of a standard field soil (loamy silt; non-sterile) and covered with a covering soil layer of about 1 cm. The pots were then cultivated in a greenhouse (12-16 h of light, temperature day 20-22° C., night 15-18° C.) until the time of application. The pots were treated on a laboratory track sprayer with spray liquors comprising the compositions according to the invention, mixtures of the prior art or components used individually. Application of the active compounds or active compound combinations formulated as WG, WP, EC or otherwise was carried out at the appropriate growth stages of the plants. The application rate for the spray application was 100-600 l of water/ha. After the treatment, the plants were returned to the greenhouses.
(§2) About 3 weeks after the application, the soil action or/and foliar action was assessed visually according to a scale of 0-100% in comparison to an untreated comparative group: 0%=no noticeable effect compared to the untreated comparative group; 100%=full effect compared to the untreated comparative group.
(§3) (notes: the term “seeds” also includes vegetative propagation forms such as, for example, rhizome pieces; abbreviations used: h light=hours of illumination, g of AS/ha=gram of active substance per hectare, l/ha=liter per hectare, S=sensitive, R=resistant) • 1. Pre-emergence action against weeds: seeds of various broad-leaved weed and weed grass biotypes (origins) were sown in a 8-13 cm diameter pot filled with natural soil of a standard field soil (loamy silt; non-sterile) and covered with a covering soil layer of about 1 cm. The pots were then cultivated in a greenhouse (12-16 h of light, temperature day 20-22° C., night 15-18° C.) until the time of application. The pots were treated at the BBCH stage 00-10 of the seeds/plants on a laboratory track sprayer with spray liquors comprising the compositions according to the invention, mixtures or components used individually, as WG, WP, EC or other formulations. The application rate for the spray application was 100-600 l of water/ha. After the treatment, the plants were returned to the greenhouses and, when required, treated with fertilizer and watered. • 2. Post-emergence action against weeds: seeds of various broad-leaved weed and weed grass biotypes (origins) were sown in a 8-13 cm diameter pot filled with natural soil of a standard field soil (loamy silt; non-sterile) and covered with a covering soil layer of about 1 cm. The pots were then cultivated in a greenhouse (12-16 h of light, temperature day 20-22° C., night 15-18° C.) until the time of application. […]

VIOAR [2] = test: Greenhouse trial, PO application (Table 2); type: in vivo, Viola arvensis; conditions: (A) 120, (B) 1600 g of AS/ha
Experimental: as §1
as §2, with “group. […]” for “group.”

STEME [3] = test: Greenhouse trial, PO application (Table 2); type: in vivo, Stellaria media; conditions: (A) 120, (B) 1600 g of AS/ha
Experimental: as §1
as §2, with “group. […]” for “group.”

LOLPE [4] = test: Greenhouse trial, PO application (Table 2); type: in vivo, Lolium perenne; conditions: (A) 120, (B) 1600 g of AS/ha
Experimental: as §1
as §2, with “group. […]” for “group.”

HORVS = test: Greenhouse trial, selective PO application (Table 2); conditions: Hordeum vulgare (summer barley), in vivo
Experimental: as §1
as §2, with “group. […]” for “group.”

LOLPE [5] = test: Greenhouse trial, PE application vs application 7 days prior to sowing (Table 3); type: in vivo, Lolium perenne; conditions: (A) 90, (B) 1200 g of AS/ha
Experimental: as §1, §2, §3

AVEFA = test: as above; type: in vivo, Avena fatua; conditions: (A) 90, (B) 1200 g of AS/ha
Experimental: as §1, §2, §3

POOAN = test: as above; type: in vivo, Poa annua; conditions: (A) 90, (B) 1200 g of AS/ha
Experimental: as §1, §2, §3

TRZAW = test: Greenhouse trial, PE application, crop (Table 3); conditions: Triticum aestivum (winter wheat), in vivo
Experimental: as §1
as §2, with “group. […]” for “group.”

TRZAS [6] = test: Greenhouse trial, application 7 days prior to sowing, crop (Table 3); conditions: Triticum aestivum (summer wheat), in vivo
Experimental: as §1
as §2, with “group. […]” for “group.”

LOLPE [7] = test: Greenhouse trial, PE application with different soil types (Table 4); type: in vivo, Lolium perenne; conditions: (A) 120, (B) 1200 g of AS/ha
Experimental: as §1, §2
(§4) (notes: the term “seeds” also includes vegetative propagation forms such as, for example, rhizome pieces; abbreviations used: h light=hours of illumination, g of AS/ha=gram of active substance per hectare, l/ha=liter per hectare, S=sensitive, R=resistant) • 1. Pre-emergence action against weeds: seeds of various broad-leaved weed and weed grass biotypes (origins) were sown in a 8-13 cm diameter pot filled with natural soil of a standard field soil (loamy silt; non-sterile) and covered with a covering soil layer of about 1 cm. The pots were then cultivated in a greenhouse (12-16 h of light, temperature day 20-22° C., night 15-18° C.) until the time of application. The pots were treated at the BBCH stage 00-10 of the seeds/plants on a laboratory track sprayer with spray liquors comprising the compositions according to the invention, mixtures or components used individually, as WG, WP, EC or other formulations. The application rate for the spray application was 100-600 l of water/ha. After the treatment, the plants were returned to the greenhouses and, when required, treated with fertilizer and watered. • 2. Post-emergence action against weeds: seeds of various broad-leaved weed and weed grass biotypes (origins) were sown in a 8-13 cm diameter pot filled with natural soil of a standard field soil (loamy silt; non-sterile) and covered with a covering soil layer of about 1 cm. The pots were then cultivated in a greenhouse (12-16 h of light, temperature day 20-22° C., night 15-18° C.) until the time of application. The pots were treated at various BBCH stages between 11-25 of the seeds/plants, i.e. generally between two to three weeks after the start of the cultivation, on a laboratory track sprayer with spray liquors comprising the compositions according to the invention, mixtures or components used individually, as WG, WP, EC or other formulations. The application rate for the spray application was 100-600 l of water/ha. After the treatment, the plants were returned to the greenhouses and, when required, treated with fertilizer and watered. • 3. Pre-emergence action against weeds with and without incorporation of active compound: seeds of various broad-leaved weed and weed grass biotypes (origins) were sown in a 8-13 cm diameter pot filled with natural soil of a standard field soil (loamy silt; non-sterile). […]

TRZAS [8] = test: Greenhouse trial, PE application with different soil types, crop (Table 4); conditions: Triticum aestivum (summer wheat), in vivo
Experimental: as §1, §2, §4

LOLSS = test: Greenhouse trial, PE application on sensitive and resistant biotypes (Table 5); type: in vivo, Lolium species; conditions: for activity, LOLSS resistant: resistant biotype; for activity, LOLSS resistant / activity, LOLSS Sensitive: (A) 90, (B) 1200, iodosulfuron 10 g of AS/ha; for activity, LOLSS Sensitive: sensitive biotype
Experimental: as §1, §2, §4

PAPRH = test: as above; type: in vivo; conditions: for activity, PAPRH resistant: resistant biotype; for activity, PAPRH resistant / activity, PAPRH Sensitive: (A) 90, (B) 1200, iodosulfuron 10 g of AS/ha; for activity, PAPRH Sensitive: sensitive biotype
Experimental: as §1, §2, §4

STEME [9] = test: Greenhouse trial, different sowing depths (Table 6); type: in vivo, Stellaria media; conditions: PE application, (A) 90, (B) 1200 g of AS/ha; for activity, STEME 5 mm: sowing depth 5 mm; for activity, STEME 20 mm: sowing depth 20 mm
Experimental: as §1, §2, §3

APESV = test: as above; type: in vivo; conditions: PE application, (A) 90, (B) 1200 g of AS/ha; for activity, APESV 5 mm: sowing depth 5 mm; for activity, APESV 20 mm: sowing depth 20 mm
Experimental: as §1, §2, §3

MATCH = test: as above; type: in vivo, Matricaria chamomilla; conditions: head prints PO application, (A) 90, (B) 1200 g of AS/ha; for activity, MATCH 5 mm: sowing depth 5 mm; for activity, MATCH 20 mm: sowing depth 20 mm
Experimental: as §1, §2, §3

VIOAR [10] = test: as above; type: in vivo, Viola arvensis; conditions: head prints PO application, (A) 90, (B) 1200 g of AS/ha; for activity, VIOAR 5 mm: sowing depth 5 mm; for activity, VIOAR 20 mm: sowing depth 20 mm
Experimental: as §1, §2, §3

[11] = Application 7 days prior to sowing

SMILES: CC(C)N(C(=O)COc1nnc(C(F)(F)F)s1)c1ccc(F)cc1 [(A) flufenacet, N-(4-fluorophenyl)-N-(1-methylethyl)-2-[[5-(trifluoromethyl)-1,3,4-thiadiazol-2-yl]oxy]acetamide]
- activity, VIOAR (VIOAR [1]; Incorporation): 0%
- activity, VIOAR (VIOAR [1]; PE application): 0%
- activity, VIOAR (VIOAR [2]): 40%
- activity, STEME (STEME [3]): 30%
- activity, LOLPE (LOLPE [4]): 65%
- activity, HORVS (HORVS): 40%
- activity, LOLPE (LOLPE [5]; [11]): 80%
- activity, LOLPE (LOLPE [5]; PE application): 90%
- activity, AVEFA (AVEFA; [11]): 70%
- activity, AVEFA (AVEFA; PE application): 80%
- activity, POOAN (POOAN; [11]): 95%
- activity, POOAN (POOAN; PE application): 65%
- activity, TRZAW (TRZAW): 30%
- activity, TRZAS (TRZAS [6]): 60%
- Difference of the soil types Δ^D = A: activity IU/EC73 soil − B: activity IU soil, LOLPE (LOLPE [7]): Δ^D −22%
- activity, LOLPE IU soil (LOLPE [7]): 97%
- activity, LOLPE IU/EC73 soil (LOLPE [7]): 75%
- Difference of the soil types Δ^D = A: activity IU/EC73 soil − B: activity IU soil, TRZAS (TRZAS [8]): Δ^D −33%
- activity, TRZAS IU soil (TRZAS [8]): 33%
- activity, TRZAS IU/EC73 soil (TRZAS [8]): 0%
- Difference resistant to sensitive Δ^D, LOLSS (LOLSS): Δ^D −75%
- activity, LOLSS resistant (LOLSS): 10%
- activity, LOLSS Sensitive (LOLSS): 85%
- Difference resistant to sensitive Δ^D, PAPRH (PAPRH): Δ^D −15%
- activity, PAPRH resistant (PAPRH): 45%
- activity, PAPRH Sensitive (PAPRH): 60%
- activity, STEME 5 mm (STEME [9]): 0%
- activity, STEME 20 mm (STEME [9]): 10%
- activity, APESV 5 mm (APESV): 65%
- activity, APESV 20 mm (APESV): 70%
- activity, MATCH 5 mm (MATCH): 30%
- activity, MATCH 20 mm (MATCH): 30%
- activity, VIOAR 5 mm (VIOAR [10]): 50%
- activity, VIOAR 20 mm (VIOAR [10]): 10%

SMILES: CCCN(CCC)C(=O)SCc1ccccc1 [(B) prosulfocarb, S-(phenylmethyl) dipropylcarbamothioate]
- activity, VIOAR (VIOAR [1]; Incorporation): 0%
- activity, VIOAR (VIOAR [1]; PE application): 20%
- activity, VIOAR (VIOAR [2]): 50%
- activity, STEME (STEME [3]): 30%
- activity, LOLPE (LOLPE [4]): 60%
- activity, HORVS (HORVS): 30%
- activity, LOLPE (LOLPE [5]; [11]): 0%
- activity, LOLPE (LOLPE [5]; PE application): 80%
- activity, AVEFA (AVEFA; [11]): 10%
- activity, AVEFA (AVEFA; PE application): 80%
- activity, POOAN (POOAN; [11]): 20%
- activity, POOAN (POOAN; PE application): 35%
- activity, TRZAW (TRZAW): 35%
- activity, TRZAS (TRZAS [6]): 10%
- Difference of the soil types Δ^D = A: activity IU/EC73 soil − B: activity IU soil, LOLPE (LOLPE [7]): Δ^D −33%
- activity, LOLPE IU soil (LOLPE [7]): 33%
- activity, LOLPE IU/EC73 soil (LOLPE [7]): 0%
- Difference of the soil types Δ^D = A: activity IU/EC73 soil − B: activity IU soil, TRZAS (TRZAS [8]): Δ^D −5%
- activity, TRZAS IU soil (TRZAS [8]): 5%
- activity, TRZAS IU/EC73 soil (TRZAS [8]): 0%
- Difference resistant to sensitive Δ^D, LOLSS (LOLSS): Δ^D −20%
- activity, LOLSS resistant (LOLSS): 65%
- activity, LOLSS Sensitive (LOLSS): 85%
- Difference resistant to sensitive Δ^D, PAPRH (PAPRH): Δ^D +20%
- activity, PAPRH resistant (PAPRH): 70%
- activity, PAPRH Sensitive (PAPRH): 50%
- activity, STEME 5 mm (STEME [9]): 60%
- activity, STEME 20 mm (STEME [9]): 50%
- activity, APESV 5 mm (APESV): 50%
- activity, APESV 20 mm (APESV): 20%
- activity, MATCH 5 mm (MATCH): 0%
- activity, MATCH 20 mm (MATCH): 0%
- activity, VIOAR 5 mm (VIOAR [10]): 60%
- activity, VIOAR 20 mm (VIOAR [10]): 20%

SMILES: COc1nc(C)nc(NC(=O)NS(=O)(=O)c2cc(I)ccc2C(=O)O)n1 [(C)^1 iodosulfuron]
- Difference resistant to sensitive Δ^D, LOLSS (LOLSS): Δ^D −48%
- Difference resistant to sensitive Δ^D, LOLSS (LOLSS; listed as standard product (C)): −48%
- activity, LOLSS resistant (LOLSS): 50%
- activity, LOLSS Sensitive (LOLSS): 98%
- Difference resistant to sensitive Δ^D, PAPRH (PAPRH): Δ^D −40%
- activity, PAPRH resistant (PAPRH): 70%
- activity, PAPRH Sensitive (PAPRH): 100%
